Patent US9896445B2, “Heterocyclic inhibitors of ERK1 and ERK2 and their use in the treatment of cancer” (Asana Biosciences, LLC, priority 2015, dated 2018)
pIC50: −log10 of the molar value. Counter-ions that a name gives are not always drawn.

Experiments:
ERK1 = molecular target: T1, ERK1 (Homo sapiens, UniProt P27361); assay: ERK1 HTRF (biochemical) assay; details: HTRF
T1 construct: purchased Jubilant Biosys
Procedure: ERK1 and ERK2 HTRF (Biochemical) Assays
These assays employed a homogeneous time resolved fluorescence (HTRF) technique. […] The plate was incubated at room temperature for 60 min with shaking. […] The IC50 values (half maximal inhibitory concentration values) were subsequently determined using a sigmoidal dose-response curve (variable slope) in GraphPad Prism® 5 software.

ERK2 = molecular target: T2, ERK2 (Homo sapiens, UniProt P28482); assay: ERK2 HTRF (biochemical) assay; details: HTRF
T2 construct: purchased Jubilant Biosys
T2 sequence (P28482 whole entry): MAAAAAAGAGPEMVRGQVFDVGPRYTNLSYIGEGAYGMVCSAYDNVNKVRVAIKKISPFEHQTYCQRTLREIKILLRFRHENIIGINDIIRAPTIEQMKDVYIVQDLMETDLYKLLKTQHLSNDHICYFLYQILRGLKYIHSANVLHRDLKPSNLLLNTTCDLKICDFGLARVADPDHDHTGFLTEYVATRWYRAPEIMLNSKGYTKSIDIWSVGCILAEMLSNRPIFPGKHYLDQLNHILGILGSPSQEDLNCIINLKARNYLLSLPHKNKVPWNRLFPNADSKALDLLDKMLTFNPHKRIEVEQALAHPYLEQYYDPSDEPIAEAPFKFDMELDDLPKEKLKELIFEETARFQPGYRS
Procedure, shortened: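 Compounds were tested as half-log dilutions from 0.0005 to 10 uM in Tris pH 7.5/MgCl2 buffer, with a substrate mix of 1 uM biotin-MBP peptide and 24 uM ATP and an enzyme mix of 25 nM ERK2. Reaction ran 60 min at room temperature. Phospho-MBP was detected by HTRF (Eu-anti-phospho-MBP/SA-APC, 665/620 nm), and IC50 was fitted with a variable-slope sigmoidal curve.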

T1 sequence (P27361 whole entry): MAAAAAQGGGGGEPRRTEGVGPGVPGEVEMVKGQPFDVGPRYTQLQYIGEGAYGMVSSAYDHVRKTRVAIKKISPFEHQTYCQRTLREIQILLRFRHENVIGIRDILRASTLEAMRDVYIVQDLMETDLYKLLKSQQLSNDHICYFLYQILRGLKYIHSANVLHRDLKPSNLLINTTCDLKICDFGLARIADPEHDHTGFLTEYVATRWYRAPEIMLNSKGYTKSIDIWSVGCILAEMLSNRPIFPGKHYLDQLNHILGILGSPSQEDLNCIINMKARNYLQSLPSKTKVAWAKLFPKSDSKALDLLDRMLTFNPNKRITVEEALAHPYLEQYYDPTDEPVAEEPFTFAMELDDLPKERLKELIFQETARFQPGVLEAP

SMILES | pIC50 (ERK1) | pIC50 (ERK2)
Cc1cnc(Nc2ccccc2)cc1-n1cnc(C(=O)NC(CO)c2cccc(Cl)c2)c1 (stereo not drawn) [Compound 180, N-(1-(3-chloro-phenyl)-2-hydroxyethyl)-1-(5-methyl-2-(phenyl-amino)pyridin-4-yl)-1H-imidazole-4-carboxamide] | > 7.30 | ≥ 7.30
COc1cc(C(=O)N2CCOCC2)c(F)cc1Nc1ncc(C)c(-n2ccc(C(=O)NC(CO)c3cccc(Cl)c3)c2)n1 (stereo not drawn) [Compound 181, N-(1-(3-chlorophenyl)-2-hydroxyethyl)-1-(2-((5-fluoro-2-methoxy-4-(morpholine-4-carbonyl)phenyl)amino)-5-methyl-pyrimidin-4-yl)-1H-pyrrole-3-carboxamide] | > 7.30 | ≥ 7.30
Cc1cc(Nc2ncc(C)c(-n3ccc(C(=O)NC(CO)c4cccc(Cl)c4)c3)n2)ccc1C1CCNCC1 (stereo not drawn) [Compound 182, N-(1-(3-chloro-phenyl)-2-hydroxyethyl)-1-(5-methyl-2-((3-methyl-4-(piperidin-4-yl)phenyl)-amino)pyrimidin-4-yl)-1H-pyrrole-3-carboxamide] | > 7.30 | ≥ 7.30
Cc1cn(-c2ccnc(Nc3ccccc3)c2)cc1C(=O)N[C@H](CO)c1cccc(Cl)c1 [Compound 183, (S)-N-(1-(3-chlorophenyl)-2-hydroxyethyl)-4-methyl-1-(2-(phenylamino)pyridin-4-yl)-1H-pyrrole-3-carboxamide] | 7.00 to 7.30 | ≥ 7.30
COc1ccc(Nc2ncc(C)c(-n3ccc(C(=O)NC(CO)c4cccc(Cl)c4)c3)n2)cc1OCCCN(C)C (stereo not drawn) [Compound 184, N-(1-(3-chloro-phenyl)-2-hydroxy-ethyl)-1-(2-((3-(3-(dimethylamino)propoxy)-4-methoxy-phenyl)amino)-5-methylpyrimidin-4-yl)-1H-pyrrole-3-carboxamide] | > 7.30 | ≥ 7.30
Cc1cnc(Nc2ccc3c(c2)OCC3)nc1-n1ccc(C(=O)NC(CO)c2ccccc2)c1 (stereo not drawn) [Compound 185] | > 7.30 | ≥ 7.30
Cc1cnc(Nc2ccc3c(c2)OCCC3)nc1-n1ccc(C(=O)NC(CO)c2ccccc2)c1 (stereo not drawn) [Compound 186, 1-(2-(chroman-7-ylamino)-5-methyl-pyrimidin-4-yl)-N-(2-hydroxy-1-phenylethyl)-1H-pyrrole-3-carboxamide] | > 7.30 | ≥ 7.30
Cc1cccc(C(CO)NC(=O)c2ccn(-c3nc(N[C@H]4CCOC4)ncc3C)c2)c1 (stereo partly drawn) [Compound 187, N-(2-hydroxy-1-(m-tolyl)ethyl)-1-(5-methyl-2-(((S)-tetrahydrofuran-3-yl)amino)pyrimidin-4-yl)-1H-pyrrole-3-carboxamide] | > 7.30 | ≥ 7.30
O=C(N[C@H](CO)c1cccc(Cl)c1)c1ccn(-c2ccnc(NC3CCOC3)c2)c1 (stereo partly drawn) [Compound 188, N-((S)-1-(3-chlorophenyl)-2-hydroxyethyl)-1-(2-((tetrahydrofuran-3-yl)amino)pyridin-4-yl)-1H-pyrrole-3-carboxamide] | 6.30 to 7.00 | 6.30 to 7.00
O=C(NC(CO)c1ccccc1)c1ccn(-c2ccnc(NC3CCOC3)c2)c1 (stereo not drawn) [Compound 189, N-(2-hydroxy-1-phenylethyl)-1-(2-((tetrahydrofuran-3-yl)amino)pyridin-4-yl)-1H-pyrrole-3-carboxamide] | 6.30 to 7.00 | 5.60 to 6.30
Cc1cnc(NCC2CCCO2)nc1-n1ccc(C(=O)N[C@H](CO)c2cccc(Cl)c2)c1 (stereo partly drawn) [Compound 190, N-((S)-1-(3-chlorophenyl)-2-hydroxyethyl)-1-(5-methyl-2-(((tetrahydrofuran-2-yl)methyl)-amino)pyrimidin-4-yl)-1H-pyrrole-3-carboxamide] | > 7.30 | 7.00 to 7.30
Cc1cnc(NCc2cccnc2)cc1-n1ccc(C(=O)NC(CO)c2ccc(F)c(Cl)c2)c1 (stereo not drawn) [Compound 193, N-(1-(3-chloro-4-fluorophenyl)-2-hydroxyethyl)-1-(5-methyl-2-((pyridin-3-ylmethyl)-amino)pyridin-4-yl)-1H-pyrrole-3-carboxamide] | 6.30 to 7.00 | 6.30 to 7.00
Cc1cnc(Nc2ccc(F)c(C(=O)N(C)C)c2)nc1-n1ccc(C(=O)NC(CO)c2cccc(Cl)c2)c1 (stereo not drawn) [Compound 194, N-(1-(3-chloro-phenyl)-2-hydroxyethyl)-1-(2-((3-(dimethyl-carbamoyl)-4-fluorophenyl)amino)-5-methyl-pyrimidin-4-yl)-1H-pyrrole-3-carboxamide] | > 7.30 | ≥ 7.30
Cc1cnc(NC2CCCCC2)nc1-n1ccc(C(=O)NC(CO)c2cccc(Cl)c2)c1 (stereo not drawn) [Compound 195, N-(1-(3-chlorophenyl)-2-hydroxyethyl)-1-(2-(cyclohexylamino)-5-methylpyrimidin-4-yl)-1H-pyrrole-3-carboxamide] | > 7.30 | ≥ 7.30
CNC(=O)c1ccc(Nc2ncc(C)c(-n3ccc(C(=O)NC(CO)c4cccc(Cl)c4)c3)n2)cc1 (stereo not drawn) [Compound 196, N-(1-(3-chloro-phenyl)-2-hydroxy-ethyl)-1-(5-methyl-2-((4-(methyl-carbamoyl)phenyl)amino)pyrimidin-4-yl)-1H-pyrrole-3-carboxamide] | > 7.30 | ≥ 7.30
CCC(C)Nc1ncc(C)c(-n2ccc(C(=O)N[C@H](CO)c3ccc(F)c(Cl)c3)c2)n1 (stereo partly drawn) [Compound 197, 1-(2-(sec-butylamino)-5-methylpyrimidin-4-yl)-N-((S)-1-(3-chloro-4-fluoro-phenyl)-2-hydroxy-ethyl)-1H-pyrrole-3-carboxamide] | > 7.30 | ≥ 7.30
Cc1cnc(Nc2ccc3c(c2)CC(=O)N3)nc1-n1ccc(C(=O)NC(CO)c2cccc(Cl)c2)c1 (stereo not drawn) [Compound 198, N-(1-(3-chloro-phenyl)-2-hydroxy-ethyl)-1-(5-methyl-2-((2-oxoindolin-5-yl)amino)pyrimidin-4-yl)-1H-pyrrole-3-carboxamide] | > 7.30 | ≥ 7.30
Cc1cnc(NC2CCCN(C)C2)nc1-n1ccc(C(=O)NC(CO)c2cccc(Cl)c2)c1 (stereo not drawn) [Compound 199, N-(1-(3-chloro-phenyl)-2-hydroxy-ethyl)-1-(5-methyl-2-((1-methyl-piperidin-3-yl)-amino)pyrimidin-4-yl)-1H-pyrrole-3-carboxamide] | > 7.30 | ≥ 7.30

Further lines, results first:

pIC50 (ERK1) | pIC50 (ERK2) | SMILES
7.00 to 7.30 | 7.00 to 7.30 | Cc1cnc(NC2CCCCC2O)nc1-n1ccc(C(=O)NC(CO)c2ccc(F)c(Cl)c2)c1 (stereo not drawn) [Compound 202, N-(1-(3-chloro-4-fluorophenyl)-2-hydroxyethyl)-1-(2-((2-hydroxy-cyclohexyl)amino)-5-methylpyrimidin-4-yl)-1H-pyrrole-3-carboxamide]
6.30 to 7.00 | 6.30 to 7.00 | Cc1cnc(NC2(CO)CC2)nc1-n1ccc(C(=O)NC(CO)c2ccc(F)c(Cl)c2)c1 (stereo not drawn) [Compound 203, N-(1-(3-chloro-4-fluorophenyl)-2-hydroxyethyl)-1-(2-((1-(hydroxy-methyl)cyclopropyl)amino)-5-methyl-pyrimidin-4-yl)-1H-pyrrole-3-carboxamide]
7.00 to 7.30 | 7.00 to 7.30 | Cc1cnc(N[C@H]2CCOC2)nc1-n1ccc(C(=O)NC(CO)c2ccc(F)cc2)c1 (stereo partly drawn) [Compound 204, N-(1-(4-fluoro-phenyl)-2-hydroxy-ethyl)-1-(5-methyl-2-(((S)-tetrahydro-furan-3-yl)amino)-pyrimidin-4-yl)-1H-pyrrole-3-carboxamide]
> 7.30 | ≥ 7.30 | Cc1cnc(Nc2ccc(N3CCOCC3)cc2)nc1-n1ccc(C(=O)NC(CO)c2cccc(Cl)c2)c1 (stereo not drawn) [Compound 205, N-(1-(3-chlorophenyl)-2-hydroxyethyl)-1-(5-methyl-2-((4-morpholinophenyl)amino)pyrimidin-4-yl)-1H-pyrrole-3-carboxamide]
> 7.30 | ≥ 7.30 | NCC(NC(=O)c1ccn(-c2ccnc(Nc3ccc(F)cc3)c2)c1)c1ccccc1 (stereo not drawn) [Compound 206, N-(2-amino-1-phenylethyl)-1-(2-((4-fluorophenyl)-amino)pyridin-4-yl)-1H-pyrrole-3-carboxamide]
> 7.30 | ≥ 7.30 | Cc1cccc([C@@H](CO)NC(=O)c2ccn(-c3nc(N[C@H]4CCOC4)ncc3C)c2)n1 [Compound 207, N-((S)-2-hydroxy-1-(6-methylpyridin-2-yl)ethyl)-1-(5-methyl-2-(((S)-tetrahydrofuran-3-yl)amino)pyrimidin-4-yl)-1H-pyrrole-3-carboxamide]
> 7.30 | ≥ 7.30 | Cc1cnc(NC2CCN(C)C2)nc1-n1ccc(C(=O)N[C@H](CO)c2cccc(Cl)c2)c1 (stereo partly drawn) [Compound 208, N-((S)-1-(3-chlorophenyl)-2-hydroxyethyl)-1-(5-methyl-2-((1-methylpyrrolidin-3-yl)amino)pyrimidin-4-yl)-1H-pyrrole-3-carboxamide]
> 7.30 | ≥ 7.30 | Cc1cnc(Nc2ccc3[nH]cc(C4=CCNCC4)c3c2)nc1-n1ccc(C(=O)NC(CO)c2cccc(Cl)c2)c1 (stereo not drawn) [Compound 209, N-(1-(3-chlorophenyl)-2-hydroxyethyl)-1-(5-methyl-2-((3-(1,2,3,6-tetrahydro-pyridin-4-yl)-1H-indol-5-yl)amino)-pyrimidin-4-yl)-1H-pyrrole-3-carboxamide hydrochloride]
> 7.30 | ≥ 7.30 | Cc1cnc(N[C@H]2CCOC2)nc1-n1ccc(C(=O)N(C)C(CO)c2cccc(Cl)c2)c1 (stereo partly drawn) [Compound 212, N-(1-(3-chlorophenyl)-2-hydroxyethyl)-N-methyl-1-(5-methyl-2-(((S)-tetrahydrofuran-3-yl)amino)-pyrimidin-4-yl)-1H-pyrrole-3-carboxamide]
